Reference: patent publication US9221796B2, “Selective NR2B antagonists” (BRISTOL-MYERS SQUIBB COMPANY, priority 2014, dated 2015)

Each compound was assayed against NR2B-subtype NMDA receptors (Rattus norvegicus (Rat), UniProt P35439+Q00960) (assay: Radioligand binding assay (3H Ro 25-6981 competition, forebrain membranes)). Conditions: 3H Ro 25-6981 (4 nM), listed as 44, E-1, read-out: NR2B Binding Ki.
Experimental: Radioligand Binding Assay. […] Buchy D; Klingelschmidt A; Messer J; Bleuel Z; Kemp J A; Richards J G. […] Thawed brains were homogenized using a Dounce homogenizer and centrifuged at 48000×g for 20 min. The pellet was resuspended in cold buffer and homogenized again using a Dounce homogenizer. […] After incubation for 1 hr at room temperature, the membrane bound radioligand was harvested on to GF/B filter plates (treated with 0.5% PEI for 1 hr at room temperature). The filter plates were dried at 50° C. for 20 mins, incubated with microscint 20 for 10 minutes and finally, the counts were read on TopCount (Perkin Elmer). […] CPM values were converted to % inhibition and the concentration response curves were plotted using custom made software. Each experiment was repeated at least twice to obtain the final binding Ki values for experimental compounds.

NR2B-subtype NMDA receptors, sequence (Q00960 27-1482, other chains not shown): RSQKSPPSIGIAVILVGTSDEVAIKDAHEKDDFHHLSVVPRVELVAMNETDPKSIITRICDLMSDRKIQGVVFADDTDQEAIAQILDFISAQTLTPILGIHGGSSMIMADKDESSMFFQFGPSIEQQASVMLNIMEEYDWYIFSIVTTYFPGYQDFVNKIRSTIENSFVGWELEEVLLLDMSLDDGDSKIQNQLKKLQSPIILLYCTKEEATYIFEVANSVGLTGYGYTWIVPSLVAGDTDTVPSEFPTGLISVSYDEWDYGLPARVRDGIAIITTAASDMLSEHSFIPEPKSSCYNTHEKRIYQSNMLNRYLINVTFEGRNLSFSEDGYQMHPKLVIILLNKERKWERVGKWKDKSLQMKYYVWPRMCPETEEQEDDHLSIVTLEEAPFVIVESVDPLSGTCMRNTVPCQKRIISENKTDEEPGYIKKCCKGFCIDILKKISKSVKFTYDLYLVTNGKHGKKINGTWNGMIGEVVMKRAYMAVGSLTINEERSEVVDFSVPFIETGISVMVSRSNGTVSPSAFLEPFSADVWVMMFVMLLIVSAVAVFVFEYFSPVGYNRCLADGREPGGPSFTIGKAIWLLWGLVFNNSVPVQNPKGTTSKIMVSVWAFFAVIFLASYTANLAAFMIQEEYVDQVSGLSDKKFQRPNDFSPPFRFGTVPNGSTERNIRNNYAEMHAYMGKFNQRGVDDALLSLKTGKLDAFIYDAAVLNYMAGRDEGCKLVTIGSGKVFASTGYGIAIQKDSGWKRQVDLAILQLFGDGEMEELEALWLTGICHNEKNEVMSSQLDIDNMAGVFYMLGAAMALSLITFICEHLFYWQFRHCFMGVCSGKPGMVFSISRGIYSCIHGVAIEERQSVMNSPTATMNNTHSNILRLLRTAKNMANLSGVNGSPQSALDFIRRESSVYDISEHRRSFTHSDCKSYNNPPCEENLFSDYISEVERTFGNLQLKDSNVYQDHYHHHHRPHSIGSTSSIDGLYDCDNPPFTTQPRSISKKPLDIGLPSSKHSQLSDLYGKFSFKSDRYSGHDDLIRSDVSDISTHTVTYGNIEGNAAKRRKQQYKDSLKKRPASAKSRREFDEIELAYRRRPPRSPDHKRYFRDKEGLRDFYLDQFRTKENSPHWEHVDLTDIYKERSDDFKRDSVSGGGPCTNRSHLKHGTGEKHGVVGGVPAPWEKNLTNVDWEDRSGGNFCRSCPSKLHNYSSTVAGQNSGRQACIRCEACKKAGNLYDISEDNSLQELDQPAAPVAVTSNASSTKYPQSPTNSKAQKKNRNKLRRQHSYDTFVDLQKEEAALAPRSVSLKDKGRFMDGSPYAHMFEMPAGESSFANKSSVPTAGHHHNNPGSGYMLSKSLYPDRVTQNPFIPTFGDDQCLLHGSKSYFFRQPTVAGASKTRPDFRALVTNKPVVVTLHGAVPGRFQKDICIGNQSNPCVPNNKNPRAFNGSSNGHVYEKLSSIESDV

| SMILES | Ki |
| --- | --- |
| O=C1C(N2CCC(c3ccc(O)cc3)C(O)C2)CCN1Cc1ccc(F)cc1 (single isomer, unassigned) [Example 44, E-1, 1-(4-Fluorobenzyl)-3-(cis-3-hydroxy-4-(4-hydroxyphenyl)piperidin-1-yl)pyrrolidin-2-one] | 650 nM |

Same assay, conditions: 3H Ro 25-6981 (4 nM), listed as 44, E-2, read-out: NR2B Binding Ki

| SMILES | Ki |
| --- | --- |
| O=C1C(N2CCC(c3ccc(O)cc3)C(O)C2)CCN1Cc1ccc(F)cc1 (single isomer, unassigned) [Example 44, E-2, 1-(4-Fluorobenzyl)-3-(cis-3-hydroxy-4-(4-hydroxyphenyl)piperidin-1-yl)pyrrolidin-2-one] | 5.7 nM |

Same assay, conditions: 3H Ro 25-6981 (4 nM), read-out: NR2B Binding Ki

| SMILES | Ki |
| --- | --- |
| O=C1C(N2CCC(c3ccc(O)cc3)CC2)CCN1Cc1ccc(F)c(F)c1 (racemic) [Example 5, 1-(3,4-Difluorobenzyl)-3-(4-(4-hydroxyphenyl)piperidin-1-yl)pyrrolidin-2-one] | 4.4 nM |
| O=C1C(N2CCC(c3ccc(O)cc3)CC2)CCN1Cc1ccc(Cl)cc1 (racemic) [Example 17, 1-(4-Chlorobenzyl)-3-(4-(4-hydroxyphenyl)piperidin-1-yl)pyrrolidin-2-one] | 1.6 nM |
| O=C1C(N2CCC(c3ccc(O)cc3)C(O)C2)CCN1Cc1ccc(F)cc1 (single isomer, unassigned) [Example 9a, 1-(4-Fluorobenzyl)-3-(3-hydroxy-4-(4-hydroxyphenyl)piperidin-1-yl)pyrrolidin-2-one] | 180 nM |
| O=C1C(N2CCC(c3ccc(O)cc3)C(O)C2)CCN1Cc1ccc(F)cc1 (single isomer, unassigned) [Example 9b, 1-(4-Fluorobenzyl)-3-(3-hydroxy-4-(4-hydroxyphenyl)-piperidin-1-yl)pyrrolidin-2-one] | 1400 nM |
| O=C1C(N2CCC(c3ccc(O)cc3)C(O)C2)CCN1Cc1ccc(F)cc1 (single isomer, unassigned) [Example 9c, 1-(4-Fluorobenzyl)-3-(3-hydroxy-4-(4-hydroxyphenyl)-piperidin-1-yl)pyrrolidin-2-one] | 5000 nM |
| O=C1C(N2CCC(c3ccc(O)cc3)C(O)C2)CCN1Cc1ccc(F)cc1 (single isomer, unassigned) [Example 9d, 1-(4-Fluorobenzyl)-3-(3-hydroxy-4-(4-hydroxyphenyl)piperidin-1-yl)pyrrolidin-2-one] | 160 nM |
| O=C1C(N2CCC(c3ccc(O)cc3)CC2)CCCN1Cc1ccccc1 (single isomer, unassigned) [Example 41a, 1′-Benzyl-4-(4-hydroxyphenyl)-[1,3′-bipiperidin]-2′-one] | 990 nM |
| O=C1C(N2CCC(c3ccc(O)cc3)CC2)CCCN1Cc1ccccc1 (single isomer, unassigned) [Example 41b, 1′-Benzyl-4-(4-hydroxyphenyl)-[1,3′-bipiperidin]-2′-one] | 200 nM |
| O=C1C(N2CCC(c3ccc(O)cc3)C(F)(F)C2)CCN1Cc1ccc(C(F)(F)F)cc1 (single isomer, unassigned) [Example 53, P-1, 3-(3,3-Difluoro-4-(4-hydroxyphenyl)piperidin-1-yl)-1-(4-(trifluoromethyl)-benzyl)pyrrolidin-2-one] | 1100 nM |
| O=C1C(N2CCC(c3ccc(O)cc3)C(F)(F)C2)CCN1Cc1ccc(C(F)(F)F)cc1 (single isomer, unassigned) [Example 53, P-2, 3-(3,3-Difluoro-4-(4-hydroxyphenyl)piperidin-1-yl)-1-(4-(trifluoromethyl)-benzyl)pyrrolidin-2-one] | 5.8 nM |
| C[C@@H](c1ccc(F)cc1)N1CCC(N2CCC(c3ccc(O)cc3)C(F)(F)C2)C1=O (single isomer, unassigned) [Example 56, P-1] | ≥ 5000 nM |
| C[C@@H](c1ccc(F)cc1)N1CCC(N2CCC(c3ccc(O)cc3)C(F)(F)C2)C1=O (single isomer, unassigned) [Example 56, P-2] | 1400 nM |
| C[C@@H](c1ccc(F)cc1)N1CCC(N2CCC(c3ccc(O)cc3)C(F)(F)C2)C1=O (single isomer, unassigned) [Example 56, P-3] | ≥ 5000 nM |
| C[C@@H](c1ccc(F)cc1)N1CCC(N2CCC(c3ccc(O)cc3)C(F)(F)C2)C1=O (single isomer, unassigned) [Example 56, P-4] | 660 nM |
